US20220280422A1 (Innovation for Success, LLC, priority 2021, published 2022)

Tests used:
[1] = taken orally in pill form or capsule form; cited from earlier work
[2] = Recrystallization of melatonin on cooling in food-grade solvents; format: physicochemical; conditions: dissolved by heating then cooled
From the text: During research of the dissolvable strip 100, several food-grade solvents were identified having a sufficient solubility of melatonin including glycerin, ethanol, oleic acid, and propylene glycol. When heated, each of these solvents is capable of dissolving crystalized melatonin. […] Whereas, as noted above, glycerin incorporates well into the strip 100 at levels up to about 2% to 5%, is compatible with the lipid shell 124, and prevents recrystallization of the melatonin contained by the lipid shell 124.

[3] = Dissolution of melatonin in liquid glycerin; format: physicochemical; conditions: at least 250 mg melatonin per milliliter glycerin
Procedure: At block 304, the method 300 includes combining melatonin with liquid glycerin, which is also termed glycerol and/or glycerine. The melatonin may be dry and/or powered, and is typically in a crystalized state. As noted above, in an exemplary embodiment, at least 250 mg of melatonin is added per milliliter of glycerin.
Next, at block 308 of the method 300, the melatonin and glycerin mixture is heated to approximately 76.6° C. (170° F.). Moreover, in some embodiments, the melatonin and glycerin mixture is stirred during the heating process.
As shown in block 404, first the method 400 includes mixing melatonin with liquid glycerin. The melatonin may be dry and/or powered, and is typically in a crystalized state. As noted above, in an exemplary embodiment, at least 250 mg of melatonin is added per milliliter of glycerin.
Next, at block 408 of the method 400, the melatonin and glycerin mixture is heated to approximately 76.6° C. (170° F.). Moreover, in some embodiments, the melatonin and glycerin mixture is stirred during the heating process.

[4] = cited from earlier work
[5] = molecular target: T1, CYP1A2 (Homo sapiens, UniProt P05177); conditions: in vivo; cited from earlier work
T1 sequence (P05177 1-516): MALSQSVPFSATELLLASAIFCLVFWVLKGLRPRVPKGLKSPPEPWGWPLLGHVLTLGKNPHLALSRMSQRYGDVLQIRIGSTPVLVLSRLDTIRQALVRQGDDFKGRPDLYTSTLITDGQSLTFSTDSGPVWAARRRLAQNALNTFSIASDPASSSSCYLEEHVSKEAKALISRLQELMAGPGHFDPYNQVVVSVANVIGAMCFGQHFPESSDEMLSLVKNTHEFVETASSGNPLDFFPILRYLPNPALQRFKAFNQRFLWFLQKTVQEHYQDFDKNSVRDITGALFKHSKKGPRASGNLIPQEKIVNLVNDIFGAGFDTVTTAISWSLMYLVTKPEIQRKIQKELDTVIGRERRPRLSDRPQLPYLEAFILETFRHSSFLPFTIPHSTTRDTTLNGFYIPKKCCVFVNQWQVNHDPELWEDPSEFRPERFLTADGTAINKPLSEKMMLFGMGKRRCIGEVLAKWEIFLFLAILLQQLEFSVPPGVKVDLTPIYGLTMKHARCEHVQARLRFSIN

| recrystallization of melatonin when cooled ([2]; solvent ethanol) | recrystallization of melatonin when cooled ([2]; solvent oleic acid) | recrystallization of melatonin when cooled ([2]; solvent propylene glycol) | dissolution of melatonin in glycerin ([3]; heated to approximately 76.6° C. and stirred) | Structure (SMILES) | fraction absorbed into the body [1] | recrystallization of melatonin when cooled ([2]; solvent liquid glycerin) | dissolution of melatonin in glycerin ([3]; room temperature (25° C.)) | solubility in water [4] | melatonin in the blood removed during each pass through the liver [5] | melatonin removed from the bloodstream by liver and kidneys [5] |
| --- | --- | --- | --- | --- | --- | --- | --- | --- | --- | --- |
| – | – | – | – | COc1ccc2[nH]cc(CCNC(C)=O)c2c1 [non-solubilized melatonin] | about 15% | – | – | – | – | – |
| recrystallized | recrystallized | recrystallized | all of the melatonin dissolves | COc1ccc2[nH]cc(CCNC(C)=O)c2c1 [melatonin, N-acetyl-5-methoxy tryptamine] | – | recrystallized in each of the solvents except for the liquid glycerin | only a portion of the melatonin dissolves | only slightly soluble in water | 30%-50% | 30-50% |
